# Assay results: patent publication US7192906B2, “Substituted pyrazole derivatives, production process thereof, and herbicide compositions containing the derivatives” (SDS Biotech K.K., priority 2001, dated 2007)
# Tested on: Chenopodium album
# Experiment: Test Example 1 upland field foliage treatment
# Assay type: in vivo
# Conditions: Table 4, upland field foliage treatment, index 0-5
# Summary of the method: (§1)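 Post-emergence foliar spray of water-diluted wettable powder at 1 kg active ingredient per hectare, applied 14 days after sowing in upland soil. Weed control or crop phytotoxicity rated 21 days later on a 0–5 scale (5: ≥90%, 0: <10%).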
row,SMILES,Herbicidal activity CA: Chenopodium album
1,CON=C(Cn1cc(C)c(-c2ccc(Cl)cc2)n1)C(N)=O [Compound 17],"5 (herbicidal effect of not less than 90%, or phytotoxicity of 90% or more)"
2,CNC(=O)C(Cn1cc(C)c(-c2ccccc2)n1)=NOC [Compound 18],"5 (herbicidal effect of not less than 90%, or phytotoxicity of 90% or more)"

# Tested on: Digitaria adscendens
# Experiment: Test Example 1 upland field foliage treatment
# Assay type: in vivo
# Conditions: Table 4, upland field foliage treatment, index 0-5
# Summary of the method: as §1
row,SMILES,Herbicidal activity DA: Digitaria adscendens
1,CON=C(Cn1cc(C)c(-c2ccc(Cl)cc2)n1)C(N)=O [Compound 17],"5 (herbicidal effect of not less than 90%, or phytotoxicity of 90% or more)"
2,CNC(=O)C(Cn1cc(C)c(-c2ccccc2)n1)=NOC [Compound 18],"5 (herbicidal effect of not less than 90%, or phytotoxicity of 90% or more)"

# Tested on: Setaria viridis
# Experiment: Test Example 1 upland field foliage treatment
# Assay type: in vivo
# Conditions: Table 4, upland field foliage treatment, index 0-5
# Summary of the method: as §1
row,SMILES,Herbicidal activity SV: Setaria viridis
1,CON=C(Cn1cc(C)c(-c2ccc(Cl)cc2)n1)C(N)=O [Compound 17],"5 (herbicidal effect of not less than 90%, or phytotoxicity of 90% or more)"
2,CNC(=O)C(Cn1cc(C)c(-c2ccccc2)n1)=NOC [Compound 18],"5 (herbicidal effect of not less than 90%, or phytotoxicity of 90% or more)"

# Tested on: Stellaria media
# Experiment: Test Example 1 upland field foliage treatment
# Assay type: in vivo
# Conditions: Table 4, upland field foliage treatment, index 0-5
# Summary of the method: as §1
row,SMILES,Herbicidal activity SM: Stellaria media
1,CON=C(Cn1cc(C)c(-c2ccc(Cl)cc2)n1)C(N)=O [Compound 17],"5 (herbicidal effect of not less than 90%, or phytotoxicity of 90% or more)"
2,CNC(=O)C(Cn1cc(C)c(-c2ccccc2)n1)=NOC [Compound 18],"5 (herbicidal effect of not less than 90%, or phytotoxicity of 90% or more)"

# Tested on: soybean (Glycine max)
# Experiment: Test Example 1 upland field foliage treatment, crop phytotoxicity
# Assay type: in vivo
# Conditions: Table 4, upland field foliage treatment, index 0-5
# Summary of the method: as §1
row,SMILES,Herbicidal activity (phytotoxicity) GM: Soybean (Glycine max)
1,CON=C(Cn1cc(C)c(-c2ccc(Cl)cc2)n1)C(N)=O [Compound 17],"0 (herbicidal effect of not less than 0% and less than 10%, or phytotoxicity of 0% or more and less than 10%)"
2,CNC(=O)C(Cn1cc(C)c(-c2ccccc2)n1)=NOC [Compound 18],"0 (herbicidal effect of not less than 0% and less than 10%, or phytotoxicity of 0% or more and less than 10%)"

# Tested on: wheat (Triticum aestivum)
# Experiment: as above
# Assay type: in vivo
# Conditions: Table 4, upland field foliage treatment, index 0-5
# Summary of the method: as §1
row,SMILES,Herbicidal activity (phytotoxicity) TA: Wheat (Triticum aestivum)
1,CON=C(Cn1cc(C)c(-c2ccc(Cl)cc2)n1)C(N)=O [Compound 17],"0 (herbicidal effect of not less than 0% and less than 10%, or phytotoxicity of 0% or more and less than 10%)"
2,CNC(=O)C(Cn1cc(C)c(-c2ccccc2)n1)=NOC [Compound 18],"0 (herbicidal effect of not less than 0% and less than 10%, or phytotoxicity of 0% or more and less than 10%)"

# Tested on: Chenopodium album
# Experiment: Test Example 2 upland soil treatment
# Assay type: in vivo
# Conditions: Table 5, upland soil treatment, index 0-5
# Summary of the method: (§2)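 Pre-emergence soil application the day after sowing, active ingredient at 1 kg per hectare as diluted wettable powder, seeds covered with about 1 cm soil. Assessed 21 days after application on a 0–5 scale (5 = ≥90% herbicidal effect or phytotoxicity; 0 = <10%).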
row,SMILES,Herbicidal activity CA: Chenopodium album
1,CON=C(Cn1cc(C)c(-c2ccc(Cl)cc2)n1)C(N)=O [Compound 17],"4 (herbicidal effect of not less than 70% and less than 90%, or phytotoxicity of 70% or more and less than 90%)"
2,CNC(=O)C(Cn1cc(C)c(-c2ccccc2)n1)=NOC [Compound 18],"5 (herbicidal effect of not less than 90%, or phytotoxicity of 90% or more)"

# Tested on: Digitaria adscendens
# Experiment: Test Example 2 upland soil treatment
# Assay type: in vivo
# Conditions: Table 5, upland soil treatment, index 0-5
# Summary of the method: as §2
row,SMILES,Herbicidal activity DA: Digitaria adscendens
1,CON=C(Cn1cc(C)c(-c2ccc(Cl)cc2)n1)C(N)=O [Compound 17],"4 (herbicidal effect of not less than 70% and less than 90%, or phytotoxicity of 70% or more and less than 90%)"
2,CNC(=O)C(Cn1cc(C)c(-c2ccccc2)n1)=NOC [Compound 18],"5 (herbicidal effect of not less than 90%, or phytotoxicity of 90% or more)"

# Tested on: Setaria viridis
# Experiment: Test Example 2 upland soil treatment
# Assay type: in vivo
# Conditions: Table 5, upland soil treatment, index 0-5
# Summary of the method: as §2
row,SMILES,Herbicidal activity SV: Setaria viridis
1,CON=C(Cn1cc(C)c(-c2ccc(Cl)cc2)n1)C(N)=O [Compound 17],"4 (herbicidal effect of not less than 70% and less than 90%, or phytotoxicity of 70% or more and less than 90%)"
2,CNC(=O)C(Cn1cc(C)c(-c2ccccc2)n1)=NOC [Compound 18],"5 (herbicidal effect of not less than 90%, or phytotoxicity of 90% or more)"

# Tested on: Stellaria media
# Experiment: Test Example 2 upland soil treatment
# Assay type: in vivo
# Conditions: Table 5, upland soil treatment, index 0-5
# Summary of the method: as §2
row,SMILES,Herbicidal activity SM: Stellaria media
1,CON=C(Cn1cc(C)c(-c2ccc(Cl)cc2)n1)C(N)=O [Compound 17],"4 (herbicidal effect of not less than 70% and less than 90%, or phytotoxicity of 70% or more and less than 90%)"
2,CNC(=O)C(Cn1cc(C)c(-c2ccccc2)n1)=NOC [Compound 18],"5 (herbicidal effect of not less than 90%, or phytotoxicity of 90% or more)"

# Tested on: soybean (Glycine max)
# Experiment: Test Example 2 upland soil treatment, crop phytotoxicity
# Assay type: in vivo
# Conditions: Table 5, upland soil treatment, index 0-5
# Summary of the method: as §2
row,SMILES,Herbicidal activity (phytotoxicity) GM: Soybean (Glycine max)
1,CON=C(Cn1cc(C)c(-c2ccc(Cl)cc2)n1)C(N)=O [Compound 17],"0 (herbicidal effect of not less than 0% and less than 10%, or phytotoxicity of 0% or more and less than 10%)"
2,CNC(=O)C(Cn1cc(C)c(-c2ccccc2)n1)=NOC [Compound 18],"0 (herbicidal effect of not less than 0% and less than 10%, or phytotoxicity of 0% or more and less than 10%)"

# Tested on: wheat (Triticum aestivum)
# Experiment: as above
# Assay type: in vivo
# Conditions: Table 5, upland soil treatment, index 0-5
# Summary of the method: as §2
row,SMILES,Herbicidal activity (phytotoxicity) TA: Wheat (Triticum aestivum)
1,CON=C(Cn1cc(C)c(-c2ccc(Cl)cc2)n1)C(N)=O [Compound 17],"0 (herbicidal effect of not less than 0% and less than 10%, or phytotoxicity of 0% or more and less than 10%)"
2,CNC(=O)C(Cn1cc(C)c(-c2ccccc2)n1)=NOC [Compound 18],"0 (herbicidal effect of not less than 0% and less than 10%, or phytotoxicity of 0% or more and less than 10%)"

# Tested on: Ammannia multiflora
# Experiment: Test Example 3 paddy field treatment
# Assay type: in vivo
# Conditions: paddy field treatment, wettable powder, active ingredient 1 kg per hectare, 21st day after the dropping, index 0-5
# Summary of the method: (§3)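 Weed seeds sown in puddled paddy soil under 4 cm water, with two-leaf Koshihikari rice transplanted; 10 days later a wettable powder was applied to the water surface at 1 kg active ingredient/ha. Scored 21 days after application on a 0–5 scale (0 = <10%, 5 = ≥90% herbicidal effect or phytotoxicity).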
row,SMILES,Herbicidal activity AM
1,CON=C(Cn1cc(C)c(-c2ccc(Cl)cc2)n1)C(N)=O [Compound 17],"5 (herbicidal effect of not less than 90%, or phytotoxicity of 90% or more)"
2,CNC(=O)C(Cn1cc(C)c(-c2ccccc2)n1)=NOC [Compound 18],"5 (herbicidal effect of not less than 90%, or phytotoxicity of 90% or more)"

# Tested on: Echinochloa crusgalli
# Experiment: Test Example 3 paddy field treatment
# Assay type: in vivo
# Conditions: paddy field treatment, wettable powder, active ingredient 1 kg per hectare, 21st day after the dropping, index 0-5
# Summary of the method: as §3
row,SMILES,Herbicidal activity EC
1,CON=C(Cn1cc(C)c(-c2ccc(Cl)cc2)n1)C(N)=O [Compound 17],"4 (herbicidal effect of not less than 70% and less than 90%, or phytotoxicity of 70% or more and less than 90%)"
2,CNC(=O)C(Cn1cc(C)c(-c2ccccc2)n1)=NOC [Compound 18],"5 (herbicidal effect of not less than 90%, or phytotoxicity of 90% or more)"

# Tested on: Monochoria vaginalis
# Experiment: Test Example 3 paddy field treatment
# Assay type: in vivo
# Conditions: paddy field treatment, wettable powder, active ingredient 1 kg per hectare, 21st day after the dropping, index 0-5
# Summary of the method: as §3
row,SMILES,Herbicidal activity MV
1,CON=C(Cn1cc(C)c(-c2ccc(Cl)cc2)n1)C(N)=O [Compound 17],"5 (herbicidal effect of not less than 90%, or phytotoxicity of 90% or more)"
2,CNC(=O)C(Cn1cc(C)c(-c2ccccc2)n1)=NOC [Compound 18],"5 (herbicidal effect of not less than 90%, or phytotoxicity of 90% or more)"

# Tested on: Scirpus juncoides
# Experiment: Test Example 3 paddy field treatment
# Assay type: in vivo
# Conditions: paddy field treatment, wettable powder, active ingredient 1 kg per hectare, 21st day after the dropping, index 0-5
# Summary of the method: as §3
row,SMILES,Herbicidal activity SJ
1,CON=C(Cn1cc(C)c(-c2ccc(Cl)cc2)n1)C(N)=O [Compound 17],"4 (herbicidal effect of not less than 70% and less than 90%, or phytotoxicity of 70% or more and less than 90%)"
2,CNC(=O)C(Cn1cc(C)c(-c2ccccc2)n1)=NOC [Compound 18],"5 (herbicidal effect of not less than 90%, or phytotoxicity of 90% or more)"

# Tested on: Rice (Oryza sativa)
# Experiment: Test Example 3 paddy field treatment, crop phytotoxicity
# Assay type: in vivo
# Conditions: paddy field treatment, transplanted rice Koshihikari, wettable powder, active ingredient 1 kg per hectare, 21st day after the dropping, index 0-5
# Summary of the method: as §3
row,SMILES,Herbicidal activity OS (phytotoxicity to rice)
1,CON=C(Cn1cc(C)c(-c2ccc(Cl)cc2)n1)C(N)=O [Compound 17],"0 (herbicidal effect of not less than 0% and less than 10%, or phytotoxicity of 0% or more and less than 10%)"
2,CNC(=O)C(Cn1cc(C)c(-c2ccccc2)n1)=NOC [Compound 18],"0 (herbicidal effect of not less than 0% and less than 10%, or phytotoxicity of 0% or more and less than 10%)"
